Data: patent US3976788A (priority 1974, dated 1976)
“Also recorded” adds a separate entry of the source. Where two headings read alike, the source gives them in different places.

Experiments:
Stability to heat = assay type: physicochemical
Procedure: which can be treated with about a 0.4 molar equivalent of bromine trifluoride at -5° C to give the ether V (See Examples 8 and 9).

male CF-1 mice [1] = experiment: Convulsions in mice, 5 min inhalation exposure to test compound in air; assay type: in vivo, mouse (male CF-1); conditions: for ADDITIONAL REMARKS: type of convulsions and other effects: Table 1; for MOUSE CONVULSANT CONC., VOL. %: inhalation, 5 min
Procedure: (§1) If anesthesia occurred, the median anesthetic concentration (AC50) was established. Another thirty mice were treated similarly to establish the median lethal concentration (LC50). The concentrations were calculated from the volume used and density of the test compound and the volume of air (6.3 l) in the test jar using the ideal gas law. The results for the convulsant ethers are given in Table 1; Tables 2 and 3 contain the results for related nonconvulsant ethers, most of which are good anesthetic agents.

male CF-1 mice [2] = experiment: Lethality in mice (median lethal concentration LC50); assay type: in vivo, mouse (male CF-1); conditions: for MOUSE LC50: inhalation, 5 min
Procedure: as §1

dogs = experiment: Convulsions / other effects in dogs; assay type: in vivo, dog
male CF-1 mice [3] = experiment: Anesthesia in mice (median anesthetic concentration AC50); assay type: in vivo, mouse (male CF-1); conditions: inhalation, 5 min
Procedure: as §1

male CF-1 mice [4] = conditions: footnote 5 (Krantz et al.); cited from earlier work
male CF-1 mice [5] = conditions: footnote 5 (Krantz et al.); cited from earlier work; remark: listed apart in the source
[6] = footnote 3 (Aldrich and Sheppard); cited from earlier work
[7] = test system: flurothyl induced convulsions; conditions: footnote 5 (Krantz et al.); cited from earlier work

Structure (SMILES): FC(F)OCC(F)(F)C(F)F [I, Difluoromethyl 2,2,3,3-tetrafluoropropyl ether]
- stability to heat compared with V (Stability to heat): more stable than V to heat
- ADDITIONAL REMARKS: type of convulsions and other effects (male CF-1 mice [1]): CLONIC CONVULSIONS
- MOUSE CONVULSANT CONC., VOL. % (male CF-1 mice [1]): 1.0 VOL. %
- MOUSE LC50 (male CF-1 mice [2]): 3.2 VOL. %

Structure (SMILES): FC(F)OCC(F)(F)C(F)(F)F [II, Difluoromethyl 2,2,3,3,3-pentafluoropropyl ether]
- stability to heat compared with V (Stability to heat): more stable than V to heat
- ADDITIONAL REMARKS: type of convulsions and other effects (male CF-1 mice [1]): CLONIC AND TONIC CONVULSIONS; also recorded: CATALEPSY
- MOUSE CONVULSANT CONC., VOL. % (male CF-1 mice [1]): 1.4 VOL. %
- MOUSE LC50 (male CF-1 mice [2]): > 4.2 VOL. %

Structure (SMILES): FC(F)OC(F)(F)C(F)C(F)(F)F (stereo not shown) [III, Difluoromethyl 1,1,2,3,3,3-hexafluoropropyl ether]
- stability to heat compared with V (Stability to heat): more stable than V to heat
- MOUSE CONVULSANT CONC., VOL. % (male CF-1 mice [1]): 2.0 VOL. %
- MOUSE LC50 (male CF-1 mice [2]): > 12 VOL. %

Structure (SMILES): FC(F)OC(F)(C(F)F)C(F)F [IV, Difluromethyl 1,1,2,3,3-pentafluoro-2-propyl ether]
- stability to heat compared with V (Stability to heat): more stable than V to heat
- ADDITIONAL REMARKS: type of convulsions and other effects (male CF-1 mice [1]): C[…] SEDATION
- MOUSE CONVULSANT CONC., VOL. % (male CF-1 mice [1]): 1.2 VOL. %
- ADDITIONAL REMARKS: convulsions in dogs (dogs): OPI[…]. IN DOGS
- MOUSE LC50 (male CF-1 mice [2]): 5.3 VOL. %

Structure (SMILES): FC(F)OC(F)C(F)(F)C(F)(F)F (stereo not shown) [IX]
- MOUSE AC50 (median anesthetic concentration) (male CF-1 mice [3]): 4.3 VOL. %
- MOUSE LC50 (male CF-1 mice [2]): > 9.9 VOL. %

Structure (SMILES): FCOCC(F)(F)C(F)(F)F [V, Fluoromethyl 2,2,3,3,3-pentafluoropropyl ether]
- stability to heat in the presence of an alkaline material (Stability to heat; e.g., soda lime): stable to 70 °C
- stability to heat (Stability to heat; upon distillation at 760 torr): unstable to heat and decomposed with the formation of hydrogen fluoride
- ADDITIONAL REMARKS: type of convulsions and other effects (male CF-1 mice [1]): METRAZOLE-LIKE CONVULSIONS
- MOUSE CONVULSANT CONC., VOL. % (male CF-1 mice [1]): 1.5 VOL. %
- MOUSE LC50 (male CF-1 mice [2]): > 3.0 VOL. %

Structure (SMILES): FC(F)(F)COCC(F)(F)F [VII, fluorothyl]
- ADDITIONAL REMARKS: type of convulsions and other effects (male CF-1 mice [1]): CLONIC AND TONIC CONVULSIONS
- ADDITIONAL REMARKS: time of convulsions (male CF-1 mice [1]; clonic and tonic convulsions): 30 s
- MOUSE CONVULSANT CONC., VOL. % (male CF-1 mice [4]): ≤ 0.25 VOL. %
- MOUSE LC50 (male CF-1 mice [5]): < 0.50 VOL. %

Structure (SMILES): FC(F)C(F)(F)COC(F)(F)F [VI]
- MOUSE CONVULSANT CONC., VOL. % (male CF-1 mice [1]): ≤ 0.5 VOL. %
- ADDITIONAL REMARKS: convulsions and death [6]: VIOLENT C[…] DEATH
- ADDITIONAL REMARKS: time of convulsions and death [6]: 30 to 120 s
- MOUSE LC50 (male CF-1 mice [2]): ≤ 0.5 VOL. %

Structure (SMILES): FCOC(F)(F)C(F)C(F)(F)F (stereo not shown) [XIII]
- MOUSE AC50 (median anesthetic concentration) (male CF-1 mice [3]): 2.1 VOL. %
- MOUSE LC50 (male CF-1 mice [2]): 6.4 VOL. %

Structure (SMILES): FC(F)OC(C(F)F)C(F)F [XII]
- MOUSE AC50 (median anesthetic concentration) (male CF-1 mice [3]): 0.64 VOL. %
- MOUSE LC50 (male CF-1 mice [2]): 3.8 VOL. %

Structure (SMILES): FCOC(F)(C(F)F)C(F)(F)F (stereo not shown) [XIV]
- MOUSE AC50 (median anesthetic concentration) (male CF-1 mice [3]): 2.5 VOL. %
- ADDITIONAL REMARKS: convulsions in dogs (dogs): NON[…] DOGS
- MOUSE LC50 (male CF-1 mice [2]): 9.0 VOL. %

Structure (SMILES): COCC(F)(F)C(F)(F)F [XIX, methyl 2,2,3,3,3-pentafluoropropyl ether]
- MOUSE AC50 (median anesthetic concentration) (male CF-1 mice [3]): 11 VOL. %
- MOUSE LC50 (male CF-1 mice [2]): 16 VOL. %

Structure (SMILES): FC(F)OC(C(F)F)C(F)(F)F (stereo not shown) [XI]
- MOUSE AC50 (median anesthetic concentration) (male CF-1 mice [3]): 0.84 VOL. %
- MOUSE LC50 (male CF-1 mice [2]): 4.9 VOL. %

Structure (SMILES): COC(F)(F)C(F)C(F)(F)F (stereo not shown) [XVIII, methyl 1,1,2,3,3,3-hexafluoropropyl ether]
- MOUSE AC50 (median anesthetic concentration) (male CF-1 mice [3]): 3.9 VOL. %
- MOUSE LC50 (male CF-1 mice [2]): > 8.0 VOL. %

Structure (SMILES): COC(F)(F)C(F)(F)C(F)(F)F [XVII]
- MOUSE LC50 (male CF-1 mice [2]): 50 VOL. %
- ADDITIONAL REMARKS: cause of death (male CF-1 mice [2]; mouse): DEATH DUE TO ANOXIA

Structure (SMILES): FCOC(C(F)F)C(F)(F)F (stereo not shown) [XVI]
- MOUSE AC50 (median anesthetic concentration) (male CF-1 mice [3]): 0.84 VOL. %
- MOUSE LC50 (male CF-1 mice [2]): 5.1 VOL. %

Structure (SMILES): FCOC(C(F)(F)F)C(F)(F)F [XV]
- MOUSE AC50 (median anesthetic concentration) (male CF-1 mice [3]): 1.4 VOL. %
- ADDITIONAL REMARKS: convulsions in dogs (dogs): NON[…] DOGS
- MOUSE LC50 (male CF-1 mice [2]): 8.5 VOL. %

Structure (SMILES): COC(C(F)F)C(F)F [XXIII]
- MOUSE AC50 (median anesthetic concentration) (male CF-1 mice [3]): 1.4 VOL. %
- MOUSE LC50 (male CF-1 mice [2]): > 7.8 VOL. %

Structure (SMILES): COC(C(F)F)C(F)(F)F (stereo not shown) [XXII]
- MOUSE AC50 (median anesthetic concentration) (male CF-1 mice [3]): 1.5 VOL. %
- MOUSE LC50 (male CF-1 mice [2]): 6.9 VOL. %

Structure (SMILES): COC(C(F)(F)F)C(F)(F)F [XXI]
- antagonist to flurothyl (induced convulsions) [7]: ANTAGONIST
- MOUSE AC50 (median anesthetic concentration) (male CF-1 mice [3]): 2.2 VOL. %
- ADDITIONAL REMARKS: convulsions in dogs (dogs): NON[…] DOGS
- MOUSE LC50 (male CF-1 mice [2]): 9.0 VOL. %

Structure (SMILES): COCC(F)(F)C(F)F [XX]
- MOUSE AC50 (median anesthetic concentration) (male CF-1 mice [3]): 2.5 VOL. %
- MOUSE LC50 (male CF-1 mice [2]): 7.0 VOL. %

Structure (SMILES): FC(F)OC(C(F)(F)F)C(F)(F)F [X]
- MOUSE AC50 (median anesthetic concentration) (male CF-1 mice [3]): 2.5 VOL. %
- ADDITIONAL REMARKS: convulsions in dogs (dogs): NON[…] DOGS
- MOUSE LC50 (male CF-1 mice [2]): 12 VOL. %
